According to US12247008B2, “Multi-aziridine compound” (COVESTRO (NETHERLANDS) B.V., priority 2020, dated 2025):

Test system: Rtkn-GFP
Test: ToxTracker genotoxicity assay, Rtkn-GFP reporter induction

## CC1CN1CC(C)(C)OC(=O)NCCCCCCn1c(=O)n(CCCCCCNC(=O)OC(C)(C)CN2CC2C)c(=O)n(CCCCCCNC(=O)OC(C)(C)CN2CC2C)c1=O (stereo not drawn) [Ex. 1]
With S9 rat liver extract, 3 h exposure and 24 h recovery, at 10% cytotoxicity
  Rtkn induction level: 1.0 fold
With S9 rat liver extract, 3 h exposure and 24 h recovery, at 25% cytotoxicity
  Rtkn induction level: 1.1 fold
With S9 rat liver extract, 3 h exposure and 24 h recovery, at 50% cytotoxicity
  Rtkn induction level: 1.3 fold
Without S9 rat liver extract, 24 h exposure, at 10% cytotoxicity
  Rtkn induction level: 1.1 fold
Without S9 rat liver extract, 24 h exposure, at 25% cytotoxicity
  Rtkn induction level: 1.1 fold
Without S9 rat liver extract, 24 h exposure, at 50% cytotoxicity
  Rtkn induction level: 1.3 fold
